From patent US10160747B2, “Compounds and methods for kinase modulation, and indications therefor” (Plexxikon Inc., priority 2016, dated 2018)

System: MOLM-14 D835Y (endogenous FLT3 ITD and transfected FLT3 D835Y)
Test: MOLM-14 D835Y cell proliferation assay (CellTiter-Glo)
Assay type: cell-based
Conditions: Homo sapiens, MOLM-14, 72 h; 3 d growth, GMean
Outline: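 MOLM-14 cells (FLT3 ITD) carrying D835Y or F691L, 1×10^4 cells/well, eight 1:3 dilutions from 1 μM final, 0.2% DMSO, 3 days at 37 °C, 5% CO2. Viability by CellTiter-Glo luminescence (ATP content); IC50 from concentration-response.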

| Structure (SMILES) | IC50 [µM] |
| --- | --- |
| Cn1cc(Nc2ncc(-c3ccc(CC(=O)Nc4ccc(C(C)(C)C#N)nc4)cc3)cn2)cn1 [Compound P-0146, N-[6-(1-cyano-1-methyl-ethyl)-3-pyridyl]-2-[4-[2-[(1-methylpyrazol-4-yl)amino]pyrimidin-5-yl]phenyl]acetamide] | 0.0001 to 10 |
| Cn1cc(Nc2ncc(-c3ccc(CC(=O)Nc4ccnc(S(C)(=O)=O)c4)cc3)cn2)cn1 [Compound P-0154, 2-[4-[2-[(1-methylpyrazol-4-yl)amino]pyrimidin-5-yl]phenyl]-N-(2-methylsulfonyl-4-pyridyl)acetamide] | 0.0001 to 10 |
| Cn1cc(Nc2ncc(-c3ccc(CC(=O)Nc4cccc(S(C)(=O)=O)c4)cc3)cn2)cn1 [Compound P-0155, 2-[4-[2-[(1-methylpyrazol-4-yl)amino]pyrimidin-5-yl]phenyl]-N-(3-methylsulfonylphenyl)acetamide] | 0.0001 to 10 |
| Cn1cc(Nc2ncc(-c3ccc(CC(=O)Nc4ccc(S(C)(=O)=O)cc4)cc3)cn2)cn1 [Compound P-0156, 2-[4-[2-[(1-methylpyrazol-4-yl)amino]pyrimidin-5-yl]phenyl]-N-(4-methylsulfonylphenyl)acetamide] | 0.0001 to 10 |
| Cn1cc(Nc2ncc(-c3ccc(CC(=O)Nc4cccc(C(C)(C)C#N)c4)cc3)cn2)cn1 [Compound P-0158, N-[3-(1-cyano-1-methyl-ethyl)phenyl]-2-[4-[2-[(1-methylpyrazol-4-yl)amino]pyrimidin-5-yl]phenyl]acetamide] | 0.0001 to 10 |
| COc1ccccc1CNC(=O)Cc1ccc(-c2cnc(Nc3cnn(C)c3)nc2)cc1 [Compound P-0160, N-[(2-methoxyphenyl)methyl]-2-[4-[2-[(1-methylpyrazol-4-yl)amino]pyrimidin-5-yl]phenyl]acetamide] | 0.0001 to 10 |
| Cn1cc(Nc2ncc(-c3ccc(CC(=O)Nc4cc(Cl)c(C5CC5)cn4)cc3)cn2)cn1 [Compound P-0164, N-(4-chloro-5-cyclopropyl-2-pyridyl)-2-[4-[2-[(1-methylpyrazol-4-yl)amino]pyrimidin-5-yl]phenyl]acetamide] | 0.0001 to 10 |
| Cn1cnc(Nc2ncc(-c3ccc(CC(=O)Nc4cncc(C(F)(F)F)c4)cc3)cn2)c1 [Compound P-0167] | 0.0001 to 10 |
| Cn1cnc(Nc2ncc(-c3ccc(CC(=O)Nc4cnc(F)c(C(C)(F)F)c4)cc3)cn2)c1 [Compound P-0168, N-[5-(1,1-difluoroethyl)-6-fluoro-3-pyridyl]-2-[4-[2-[(1-methylimidazol-4-yl)amino]pyrimidin-5-yl]phenyl]acetamide] | 0.0001 to 10 |
| Cn1cnc(Nc2ncc(-c3ccc(CC(=O)Nc4cc(C(C)(F)F)ccn4)cc3)cn2)c1 [Compound P-0169, N-[4-(1,1-difluoroethyl)-2-pyridyl]-2-[4-[2-[(1-methylimidazol-4-yl)amino]pyrimidin-5-yl]phenyl]acetamide] | 0.0001 to 10 |
| Cn1cnc(Nc2ncc(-c3ccc(CC(=O)Nc4cnc(F)c(C(C)(F)F)c4)cc3F)cn2)c1 [Compound P-0170, N-[5-(1,1-difluoroethyl)-6-fluoro-3-pyridyl]-2-[3-fluoro-4-[2-[(1-methylimidazol-4-yl)amino]pyrimidin-5-yl]phenyl]acetamide] | 0.0001 to 10 |
| Cc1ncc(NC(=O)Cc2ccc(-c3cnc4[nH]nc(C)c4c3)c(F)c2)cc1C(F)(F)F [Compound P-0172, 2-[3-fluoro-4-(3-methyl-1H-pyrazolo[3,4-b]pyridin-5-yl)phenyl]-N-[6-methyl-5-(trifluoromethyl)-3-pyridyl]acetamide] | 0.0001 to 10 |
| COc1ncc(NC(=O)Cc2cc(F)c(-c3cnc4[nH]nc(C)c4c3)cc2F)cc1C(F)(F)F [Compound P-0176, 2-[2,5-difluoro-4-(3-methyl-1H-pyrazolo[3,4-b]pyridin-5-yl)phenyl]-N-[6-methoxy-5-(trifluoromethyl)-3-pyridyl]acetamide] | 0.0001 to 10 |
| COCCn1cc(Nc2ncc(-c3ccc(CC(=O)Nc4cncc(C(F)(F)F)c4)cc3)cn2)cn1 [Compound P-0178, 2-[4-[2-[[1-(2-methoxyethyl)pyrazol-4-yl]amino]pyrimidin-5-yl]phenyl]-N-[5-(trifluoromethyl)-3-pyridyl]acetamide] | 0.0001 to 10 |
| O=C(Cc1ccc(-c2cnc3[nH]c(-c4ccnc(N5CCOCC5)c4)cc3c2)cn1)Nc1ccnc(C(F)(F)F)c1 [Compound P-0181, 2-[5-[2-(2-morpholino-4-pyridyl)-1H-pyrrolo[2,3-b]pyridin-5-yl]-2-pyridyl]-N-[2-(trifluoromethyl)-4-pyridyl]acetamide] | 0.0001 to 10 |

The next lines start with the values.

| IC50 [µM] | Structure (SMILES) |
| --- | --- |
| 0.0001 to 10 | Cc1ncc(NC(=O)Cc2ccc(-c3cnc(Nc4cnn(C)c4)nc3)cc2)cc1C(F)(F)F [Compound P-0140, 2-[4-[2-[(1-methylpyrazol-4-yl)amino]pyrimidin-5-yl]phenyl]-N-[6-methyl-5-(trifluoromethyl)-3-pyridyl]acetamide] |
| 0.0001 to 10 | Cn1cc(Nc2ncc(-c3ccc(CC(=O)Nc4cccc(C(F)(F)F)c4)cc3)cn2)cn1 [Compound P-0141, 2-[4-[2-[(1-methylpyrazol-4-yl)amino]pyrimidin-5-yl]phenyl]-N-[3-(trifluoromethyl)phenyl]acetamide] |
| 0.0001 to 10 | Cn1cc(Nc2ncc(-c3ccc(CC(=O)Nc4ccc(C(F)(F)F)c(F)c4)cc3)cn2)cn1 [Compound P-0142, N-[3-fluoro-4-(trifluoromethyl)phenyl]-2-[4-[2-[(1-methylpyrazol-4-yl)amino]pyrimidin-5-yl]phenyl]acetamide] |
| 0.0001 to 10 | Cn1cc(Nc2ncc(-c3ccc(CC(=O)Nc4ccc(C(C)(C)C)nc4)cc3)cn2)cn1 [Compound P-0143, N-(6-tert-butyl-3-pyridyl)-2-[4-[2-[(1-methylpyrazol-4-yl)amino]pyrimidin-5-yl]phenyl]acetamide] |
| 0.0001 to 10 | Cn1cc(Nc2ncc(-c3ccc(CC(=O)Nc4cncc(C(C)(F)F)c4)cc3)cn2)cn1 [Compound P-0144, N-[5-(1,1-difluoroethyl)-3-pyridyl]-2-[4-[2-[(1-methylpyrazol-4-yl)amino]pyrimidin-5-yl]phenyl]acetamide] |
| 0.0001 to 10 | Cn1cc(Nc2ncc(-c3ccc(CC(=O)Nc4cnc(Cl)c(C(F)(F)F)c4)cc3)cn2)cn1 [Compound P-0145, N-[6-chloro-5-(trifluoromethyl)-3-pyridyl]-2-[4-[2-[(1-methylpyrazol-4-yl)amino]pyrimidin-5-yl]phenyl]acetamide] |
| 0.0001 to 10 | COc1ncc(NC(=O)Cc2ccc(-c3cnc(Nc4cn(C)cn4)nc3)cc2)cc1C(F)(F)F [Compound P-0149, N-[6-methoxy-5-(trifluoromethyl)-3-pyridyl]-2-[4-[2-[(1-methylimidazol-4-yl)amino]pyrimidin-5-yl]phenyl]acetamide] |
| 0.0001 to 10 | Cc1ncc(NC(=O)Cc2ccc(-c3cnc(Nc4cn(C)cn4)nc3)cc2)cc1C(F)(F)F [Compound P-0150, 2-[4-[2-[(1-methylimidazol-4-yl)amino]pyrimidin-5-yl]phenyl]-N-[6-methyl-5-(trifluoromethyl)-3-pyridyl]acetamide] |
| 0.0001 to 10 | Cn1cc(Nc2ncc(-c3ccc(CC(=O)Nc4cnnc(Cl)c4)cc3)cn2)cn1 [Compound P-0151, N-(6-chloropyridazin-4-yl)-2-[4-[2-[(1-methylpyrazol-4-yl)amino]pyrimidin-5-yl]phenyl]acetamide] |
| 0.0001 to 10 | Cn1cc(Nc2ncc(-c3ccc(CC(=O)Nc4cccc(C(F)(F)F)n4)cc3)cn2)cn1 [Compound P-0152, 2-[4-[2-[(1-methylpyrazol-4-yl)amino]pyrimidin-5-yl]phenyl]-N-[6-(trifluoromethyl)-2-pyridyl]acetamide] |
| 0.0001 to 10 | COc1cc(NC(=O)Cc2ccc(-c3cnc(Nc4cnn(C)c4)nc3)cc2)ccn1 [Compound P-0153, N-(2-methoxy-4-pyridyl)-2-[4-[2-[(1-methylpyrazol-4-yl)amino]pyrimidin-5-yl]phenyl]acetamide] |
| 0.0001 to 10 | Cn1cc(Nc2ncc(-c3ccc(CC(=O)Nc4cccc(OC(F)(F)F)c4)cc3)cn2)cn1 [Compound P-0157, 2-[4-[2-[(1-methylpyrazol-4-yl)amino]pyrimidin-5-yl]phenyl]-N-[3-(trifluoromethoxy)phenyl]acetamide] |
| 0.0001 to 10 | Cn1cc(Nc2ncc(-c3ccc(CC(=O)NCc4ncccc4C(F)(F)F)cc3)cn2)cn1 [Compound P-0159, 2-[4-[2-[(1-methylpyrazol-4-yl)amino]pyrimidin-5-yl]phenyl]-N-[[3-(trifluoromethyl)-2-pyridyl]methyl]acetamide] |
| 0.0001 to 10 | Cn1cc(Nc2ncc(-c3ccc(CC(=O)NCc4cncc(C(F)(F)F)c4)cc3)cn2)cn1 [Compound P-0161, 2-[4-[2-[(1-methylpyrazol-4-yl)amino]pyrimidin-5-yl]phenyl]-N-[[5-(trifluoromethyl)-3-pyridyl]methyl]acetamide] |
| 0.0001 to 10 | CCn1cc(Nc2ncc(-c3ccc(CC(=O)Nc4cnc(Cl)c(C(F)(F)F)c4)cc3)cn2)cn1 [Compound P-0165, N-[6-chloro-5-(trifluoromethyl)-3-pyridyl]-2-[4-[2-[(1-ethylpyrazol-4-yl)amino]pyrimidin-5-yl]phenyl]acetamide] |
| 0.0001 to 10 | CCn1cc(Nc2ncc(-c3ccc(CC(=O)Nc4cncc(C(F)(F)F)c4)cc3)cn2)cn1 [Compound P-0166, 2-[4-[2-[(1-ethylpyrazol-4-yl)amino]pyrimidin-5-yl]phenyl]-N-[5-(trifluoromethyl)-3-pyridyl]acetamide] |
| 0.0001 to 10 | COCCn1cc(Nc2ncc(-c3ccc(CC(=O)Nc4cnc(C)c(C(F)(F)F)c4)cc3)cn2)cn1 [Compound P-0179, 2-[4-[2-[[1-(2-methoxyethyl)pyrazol-4-yl]amino]pyrimidin-5-yl]phenyl]-N-[6-methyl-5-(trifluoromethyl)-3-pyridyl]acetamide] |
| 0.0001 to 10 | COc1nn(C[C@H](C)O)cc1Nc1ncc(-c2ccc(CC(=O)Nc3cnc(C)c(C(F)(F)F)c3)cc2)cn1 [Compound P-0180, 2-[4-[2-[[1-[(2S)-2-hydroxypropyl]-3-methoxy-pyrazol-4-yl]amino]pyrimidin-5-yl]phenyl]-N-[6-methyl-5-(trifluoromethyl)-3-pyridyl]acetamide] |
